Test results: ChEMBL document CHEMBL6177954, “Identification of imidazo[1,2-a]pyridine-3-amine as a novel drug-like scaffold for efficious ferroptosis inhibition in vivo” (Eur J Med Chem, 2025)
The source made the active and inactive calls. No cut-off for these calls is given here.

Legend:
[1] = tested on: SH-SY5Y; test: Anti-ferroptosis activity against RSL3-induced ferroptosis in human SH-SY5Y cells assessed as reversal of ferroptosis by measuring cell viability measured after 48 hrs by MTT assay; type: functional, cell-based
[2] = tested on: HT-1080; test: Prevention of RSL3-induced ferroptosis morphological changes in human HT-1080 cells assessed as shrinkage, swelling, and membrane rupture measured up to 48 hrs; type: functional, cell-based
[3] = Toxicity in Balb/c mouse assessed as histopathological changes in liver at 20 mg/kg, iv (tail vein) measured for 24 hrs by H and E staining based analysis; type: organism-based; details: in vivo
[4] = tested on: SH-SY5Y; test: Prevention of TSZ-induced necroptosis in human SH-SY5Y cells assessed as cell viability at 5 uM measured after 48 hrs by MTT assay; type: functional, cell-based
[5] = tested on: L02; test: Cytotoxicity against human LO2 cells at 30 uM measured after 48 hrs incubation by MTT assay; type: toxicity, cell-based; details: l02, 48 h
[6] = Toxicity in Balb/c mouse assessed as histopathological changes in heart at 20 mg/kg, iv (tail vein) measured for 24 hrs by H and E staining based analysis; type: organism-based; details: in vivo
[7] = Plasma stability in rat plasma assessed as half life; type: ADME, cell-free
[8] = Metabolic stability in rat liver homogenate assessed as half life; type: ADME, tissue-based
[9] = tested on: SH-SY5Y; test: Anti-ferroptotic activity against RSL3 induced human SH-SY5Y cells inhibition of RSL3 induced in LPO accumulation at 1.5 uM measured after 16 hrs by DCFH-DA based confocal laser scanning microscopic (CLSM) imaging analysis; type: functional, cell-based
[10] = Plasma stability in human plasma assessed as recovery measured after 12 hrs; type: ADME, cell-free; details: read-out: Drug recovery
[11] = Plasma stability in human plasma assessed as half life; type: ADME, cell-free
[12] = Antioxidant activity assessed as DPPH radical scavenging activity measured after 30 mins in dark by (DPPH) bleaching assay; type: functional
[13] = tested on: Mus musculus; test: Protection against middle cerebral artery occlusion (MCAO)-induced Balb/c mouse assessed as reduction in MDA level in lesioned hemisphere at 20 mg/kg, iv (tail vein) measured for 24 hrs by lipid peroxidation MDA assay; type: functional, organism-based
[14] = tested on: SH-SY5Y; test: Anti-ferroptotic activity against RSL3 induced human SH-SY5Y cells inhibition of RSL3 induced in MDA level at 1.5 uM measured after 16 hrs by lipid peroxidation MDA assay; type: functional, cell-based
[15] = Plasma stability in rat plasma assessed as recovery measured after 12 hrs; type: ADME, cell-free; details: read-out: Drug recovery
[16] = tested on: SH-SY5Y; test: Anti-ferroptotic activity against RSL3 induced human SH-SY5Y cells inhibition of RSL3 induced in LPO accumulation at 1.5 uM measured after 16 hrs by BODIPY581/591 based flow cytometric analysis; type: functional, cell-based
[17] = Cytotoxicity against human HUVEC at 30 uM measured after 48 hrs incubation by MTT assay; type: toxicity, cell-based; details: huve
[18] = Toxicity in Balb/c mouse assessed as histopathological changes in lung at 20 mg/kg, iv (tail vein) measured for 24 hrs by H and E staining based analysis; type: organism-based; details: in vivo
[19] = Free radical trapping antioxidant activity in di-tert-undecyl hyponitrite (DTUN) trigged STY-BODIPY-embedded egg phosphatidylcholine liposomes assessed as inhibition of phospholipid peroxidation by measuring inhibition rate constant of STY-BODIPY at 1 uM by fluorescence-enabled inhibited autoxidation method (FENIX); type: functional
[20] = tested on: Mus musculus; test: Protection against middle cerebral artery occlusion (MCAO)-induced Balb/c mouse assessed as reduction in PTGS2 mRNA level in lesioned hemisphere at 20 mg/kg, iv (tail vein) measured for 24 hrs by qRT-PCR analysis; type: functional, organism-based
[21] = Metal chelating activity assessed as compound-Fe2+ complex formation by UV-Vis absorption spectra analysis
[22] = tested on: SH-SY5Y; test: Prevention of STS-induced apoptosis in human SH-SY5Y cells assessed as cell viability at 5 uM measured after 48 hrs by MTT assay; type: functional, cell-based
[23] = tested on: SH-SY5Y; test: Prevention of RSL3-induced ferroptosis in human SH-SY5Y cells assessed as cell viability at 5 uM measured after 48 hrs by MTT assay; type: functional, cell-based
[24] = Metal chelating activity assessed as compound-Fe3+ complex formation by UV-Vis absorption spectra analysis
[25] = Metabolic stability in rat liver homogenate assessed as recovery measured after 12 hrs; type: ADME, tissue-based; details: read-out: Drug recovery
[26] = tested on: OS-RC-2; test: Anti-ferroptosis activity against RSL3-induced ferroptosis in human OS-RC-2 cells assessed as reversal of ferroptosis by measuring cell viability measured after 48 hrs by MTT assay; type: functional, cell-based
[27] = Toxicity in Balb/c mouse assessed as histopathological changes in spleen at 20 mg/kg, iv (tail vein) measured for 24 hrs by H and E staining based analysis; type: organism-based; details: in vivo
[28] = tested on: Mus musculus; test: Protection against middle cerebral artery occlusion (MCAO)-induced Balb/c mouse assessed as reduction in infarct volume in brain at 20 mg/kg, iv (tail vein) measured for 24 hrs by TTC staining (reference value: 50.08%); type: functional; design: scale not given: the % may be the effect or the level left
[29] = Toxicity in Balb/c mouse assessed as histopathological changes in kidney at 20 mg/kg, iv (tail vein) measured for 24 hrs by H and E staining based analysis; type: organism-based; details: in vivo
[30] = tested on: HT-1080; test: Anti-ferroptosis activity against RSL3-induced ferroptosis in human HT-1080 cells assessed as reversal of ferroptosis by measuring cell viability measured after 48 hrs by MTT assay; type: functional, cell-based

Q: For `COc1ccc(-c2nc3ccccn3c2NC23C[C@H]4C[C@@H](C2)C[C@@H](C3)C4)cc1`, which IC50 [1] is on record?
A: 1870 nM

Q: Which IC50 [1] does the source give for `c1ccn2c(NC34C[C@H]5C[C@@H](C3)C[C@@H](C4)C5)c(-c3cscn3)nc2c1` here?
A: > 30000 nM

Q: Which IC50 [1] does the source give for `Cc1cn2cccc(-c3ccccc3N)c2n1` here?
A: > 100000 nM

Q: For `COc1ccc(Nc2c(-c3csc4ccccc34)nc3ccccn23)cc1Cl`, which IC50 [1] is on record?
A: 195 nM

Q: Which results are given for `COc1ccc(Nc2c(C3CCCCC3)nc3ccccn23)cc1Cl`?
A: Activity [2]: Active; Activity [3]: Non-toxic; Activity [4]: inactive; Activity [5]: Non-toxic; Activity [6]: Non-toxic; IC50 [1]: 97 nM; half-life [7]: > 12 h; half-life [8]: > 12 h; Activity [9]: Active; remaining at 12 h [10]: 100%; half-life [11]: > 12 h; Activity [12]: Dose-dependent-effect; Activity [13]: Active; Activity [14]: Active; remaining at 12 h [15]: 100%; Activity [16]: Active; Activity [17]: Non-toxic; Activity [18]: Non-toxic; Ki [19]: 2 10^4/M/s; Activity [20]: Active; Activity [21]: inactive; Activity [22]: inactive; Activity [23]: Active; Activity [24]: inactive; remaining at 12 h [25]: 91.1%; Activity [26]: Active; Activity [27]: Non-toxic; Activity [28]: 25.28%; Activity [29]: Non-toxic; Activity [30]: Active

Q: For `Cc1ccccc1-c1cn2ccccc2n1`, which IC50 [1] is on record?
A: > 100000 nM

Q: For `c1ccc2c(c1)ccc1nc(-c3ccsc3)c(NC3CCCCC3)n12`, which IC50 [1] is on record?
A: 426 nM

Q: With `COc1ccc(Nc2c(-c3ccsc3)nc3ccccn23)cc1Cl` as the molecule, how does the IC50 [1] read?
A: 476 nM

Q: For `COc1ccc(-c2nc3ccccn3c2NC2CCCCC2)cc1`, which IC50 [1] is on record?
A: > 10000 nM

Q: Which results are given for `COc1ccc(Nc2c(-c3ccoc3)nc3ccccn23)cc1Cl`?
A: Activity [2]: Active; Activity [4]: inactive; Activity [5]: Non-toxic; IC50 [1]: 99 nM; half-life [7]: > 12 h; half-life [8]: > 12 h; Activity [9]: Active; remaining at 12 h [10]: 100%; half-life [11]: > 12 h; Activity [12]: Dose-dependent-effect; Activity [14]: Active; remaining at 12 h [15]: 100%; Activity [16]: Active; Activity [17]: Non-toxic; Ki [19]: 1.6 10^4/M/s; Activity [21]: inactive; Activity [22]: inactive; Activity [23]: Active; Activity [24]: inactive; remaining at 12 h [25]: 95.8%; Activity [26]: Active; Activity [30]: Active

Q: For `COc1ccc(Nc2c(-c3cc(Cl)cc(Cl)c3)nc3cc(COCc4cccc(Cl)c4)ccn23)cc1Cl`, which IC50 [1] is on record?
A: 802 nM

Q: With `Clc1cccc(CNc2c(-c3cccc(Cl)c3)nc3ccccn23)c1` as the molecule, how does the IC50 [1] read?
A: 181 nM

Q: With `CC(C)(C)Nc1c(-c2ccoc2)nc2ccccn12` as the molecule, how does the IC50 [1] read?
A: > 10000 nM

Q: With `Clc1cc(Cl)cc(-c2nc3ccccn3c2NC2CCCCC2)c1` as the molecule, how does the IC50 [1] read?
A: 625 nM

Q: For `Oc1ccccc1-c1nc2ccccn2c1Cc1ccccc1`, which IC50 [1] is on record?
A: 5210 nM

Q: For `CCOC(=O)CNc1c(-c2ccc(OC)cc2)nc2ccccn12`, which IC50 [1] is on record?
A: 3940 nM

Q: With `FC(F)(F)c1ccccc1-c1nc2ccccn2c1NCc1ccco1` as the molecule, how does the IC50 [1] read?
A: 412 nM

Q: Which IC50 [1] does the source give for `FC(F)(F)c1ccccc1-c1nc2ccc3ccccc3n2c1NC1CCCCC1` here?
A: 104 nM

Q: Which IC50 [1] does the source give for `c1coc(CNc2c(-c3cscn3)nc3ccccn23)c1` here?
A: 2640 nM

Q: Which results are given for `COc1ccc(Nc2c(-c3c(Cl)cc(Cl)cc3Cl)nc3ccc4ccccc4n23)cc1Cl`?
A: IC50 [1]: 22 nM; half-life [7]: < 0.08 h; half-life [8]: < 0.08 h; remaining at 12 h [10]: 47.9%; half-life [11]: < 0.08 h; remaining at 12 h [15]: 42.3%; remaining at 12 h [25]: 32.2%

Q: With `Clc1cccc(CNc2c(-c3cccc(Cl)c3)nc3ccc4ccccc4n23)c1` as the molecule, how does the IC50 [1] read?
A: 287 nM

Q: For `COc1ccc(Nc2c(-c3ccccc3Cl)nc3ccc4ccccc4n23)cc1Cl`, which IC50 [1] is on record?
A: 65 nM

Q: For `Clc1cc(Cl)cc(CNc2c(-c3cc(Cl)cc(Cl)c3)nc3ccccn23)c1`, which IC50 [1] is on record?
A: 1930 nM

Q: For `Clc1cc(Cl)cc(CNc2c(-c3cscn3)nc3ccccn23)c1`, which IC50 [1] is on record?
A: 2030 nM

Q: With `COc1ccc(Nc2c(-c3cc(Cl)cc(Cl)c3)nc3ccc(N4CCN(C)CC4)cn23)cc1Cl` as the molecule, how does the IC50 [1] read?
A: 84 nM

Q: For `Cc1cn2cccc(-c3ccccc3O)c2n1`, which IC50 [1] is on record?
A: > 30000 nM

Q: With `Clc1cc(Cl)cc(CNc2c(-c3ccoc3)nc3ccccn23)c1` as the molecule, how does the IC50 [1] read?
A: 1560 nM

Q: Which IC50 [1] does the source give for `Clc1cccc(-c2nc3ccccn3c2NC23C[C@H]4C[C@@H](C2)C[C@@H](C3)C4)c1` here?
A: > 30000 nM

Q: With `COc1ccc(-c2nc3ccccn3c2NC(C)(C)C)cc1` as the molecule, how does the IC50 [1] read?
A: > 30000 nM

Q: Which IC50 [1] does the source give for `Clc1cc(Cl)cc(CNc2c(-c3cc(Cl)cc(Cl)c3)nc3ccc4ccccc4n23)c1` here?
A: 766 nM

Q: For `Oc1ccccc1-c1cn2ccccc2n1`, which IC50 [1] is on record?
A: 9880 nM

Q: For `CCOC(=O)CNc1c(-c2ccccc2)nc2ccccn12`, which IC50 [1] is on record?
A: 2930 nM

Q: With `COc1ccc(Nc2c(C3CCCCC3)nc3ccc(F)cn23)cc1Cl` as the molecule, how does the IC50 [1] read?
A: 80 nM

Q: For `Oc1ccccc1-c1cccn2c(Cc3ccccc3)c(-c3ccccc3)nc12`, which IC50 [1] is on record?
A: > 30000 nM

Q: With `CCOC(=O)c1ccc(NC2CCCCC2)c(N)c1` as the molecule, how does the IC50 [1] read?
A: 20 nM

Q: What about the half-life [7] of the same molecule?
A: 2.1 h

Q: What about the half-life [8] of the same molecule?
A: 0.67 h

Q: And the remaining at 12 h [10]?
A: 94.1%

Q: What about the half-life [11] of the same molecule?
A: > 12 h

Q: What about the remaining at 12 h [15] of the same molecule?
A: 0%

Q: What about the Activity [23] of the same molecule?
A: Active

Q: What about the remaining at 12 h [25] of the same molecule?
A: 7.1%

Q: For `Cc1ccc2nc(-c3cccc(Cl)c3)c(NC(C)(C)C)n2c1`, which IC50 [1] is on record?
A: > 10000 nM

Q: With `Nc1ccccc1-c1cn2ccccc2n1` as the molecule, how does the IC50 [1] read?
A: > 10000 nM

Q: With `CC(=O)N(O)CCCCCNC(=O)CCC(=O)N(O)CCCCCNC(=O)CCC(=O)N(O)CCCCCN` as the molecule, how does the Activity [21] read?
A: Active

Q: And the Activity [24]?
A: Active

Q: Which IC50 [1] does the source give for `Cc1ccc2nc(-c3ccc(N4CCOCC4)cc3)c(NC3CCCCC3)n2c1` here?
A: > 10000 nM

Q: For `Clc1cc(Cl)cc(-c2nc3ccc4ccccc4n3c2NC2CCCCC2)c1`, which IC50 [1] is on record?
A: 920 nM

Q: With `Oc1ccc(-c2cn3ccccc3n2)c(O)c1` as the molecule, how does the IC50 [1] read?
A: 2380 nM

Q: For `c1ccn2c(NC34C[C@H]5C[C@@H](C3)C[C@@H](C4)C5)c(C3CCCCC3)nc2c1`, which IC50 [1] is on record?
A: > 10000 nM
